We go through 21 compounds from patent publication US8288385B2, “6-(3-aza-bicyclo[3.1.0]hex-3-yl)-2-phenyl-pyrimidines” (Actelion Pharmaceuticals Ltd., priority 2009, dated 2012).

SMILES strings stand for the structures.

One may read the IC50 as the concentration that inhibits the measured activity by half.

For the assay, the target named is T1, human P2Y12 receptor (Homo sapiens, UniProt Q9H244).
T1 construct: expressed in transfected cells; host or cells: Chinese Hamster Ovary (CHO) cells
T1 sequence (Q9H244 whole entry): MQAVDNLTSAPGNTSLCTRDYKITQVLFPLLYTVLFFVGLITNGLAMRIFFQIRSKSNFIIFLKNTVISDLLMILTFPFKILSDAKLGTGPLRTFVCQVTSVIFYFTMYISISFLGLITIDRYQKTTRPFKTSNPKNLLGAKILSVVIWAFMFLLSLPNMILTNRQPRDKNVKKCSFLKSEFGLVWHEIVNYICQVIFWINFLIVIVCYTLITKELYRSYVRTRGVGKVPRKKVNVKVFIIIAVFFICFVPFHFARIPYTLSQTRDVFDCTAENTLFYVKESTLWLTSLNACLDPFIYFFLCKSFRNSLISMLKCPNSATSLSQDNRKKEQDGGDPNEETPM
Kind of assay: P2Y12 receptor binding assay. Particulars: CHO cells with recombinant expression of the human P2Y12 receptor; tritium-labeled 2-methyl-S-ADP; RT, 2 hours. The procedure:
P2Y12 Receptor Binding Assay
Chinese Hamster Ovary (CHO) cells with recombinant expression of the human P2Y12 receptor were cultured in 24 well cell-culture plates. Cells were washed three times with binding buffer (50 mM Tris pH 7.4, 100 mM NaCl, 1 mM EDTA, 0.5% BSA). The cells were then incubated with 0.5 ml per well binding buffer containing tritium-labeled 2-methyl-thio-adenosine 5′-diphosphate (2-methyl-S-ADP) (between 100,000 and 300,000 dpm per well) and various concentrations of test compounds. After incubation at RT for 2 hours, cells were washed three times with binding buffer. Then, cells were solubilized by addition of 0.5 ml solubilization buffer (SDS, NaOH, EDTA). The content of each well was then transferred into beta-counter vials and 2.0 ml of Ultima Gold Scintillation liquid was added.
Turning to `CCCCOC(=O)N1CCN(C(=O)[C@@H](NC(=O)c2cc(N3C[C@@H]4[C@H](C3)[C@H]4C(=O)O)nc(-c3ccccc3)n2)C(C)C)CC1` [Example 12, (1α,5α,6α)-3-{6-[(S)-1-(4-Butoxycarbonyl-piperazine-1-carbonyl)-2-methyl-propylcarbamoyl]-2-phenyl-pyrimidin-4-yl}-3-aza-bicyclo[3.1.0]hexane-6-carboxylic acid], the IC50 is 70 nM. For `CCCCOC(=O)N1CCN(C(=O)[C@@H](NC(=O)c2cc(N3C[C@@H]4[C@H](CCC(=O)O)[C@@H]4C3)nc(-c3ccccc3)n2)C(C)C)CC1` [Example 26, 4-[(S)-2-({6-[(1α,5α,6β)-6-(2-Carboxy-ethyl)-3-aza-bicyclo[3.1.0]hex-3-yl]-2-phenyl-pyrimidine-4-carbonyl}-amino)-3-methyl-butyryl]-piperazine-1-carboxylic acid butyl ester], the IC50 amounted to 59 nM. Take `CCCCOC(=O)N1CCN(C(=O)[C@H](CCC(=O)O)NC(=O)c2cc(N3C[C@@H]4[C@H](C3)[C@@H]4NC(=O)OC(C)(C)C)nc(-c3ccccc3)n2)CC1` [Example 6, 4-((S)-2-{[6-((1α,5α,6β)-6-tert-Butoxycarbonylamino-3-aza-bicyclo[3.1.0]hex-3-yl)-2-phenyl-pyrimidine-4-carbonyl]-amino}-4-carboxy-butyryl)-piperazine-1-carboxylic acid butyl ester]: the IC50 came to 7.3 nM.

Take `CCCOC(=O)N1CCN(C(=O)[C@@H](NC(=O)c2cc(N3C[C@@H]4[C@H](C3)[C@@H]4C(=O)O)nc(-c3ccccc3)n2)C(C)C)CC1` [Example 14, (1α,5α,6β)-3-{6-[(S)-2-Methyl-1-(4-propoxycarbonyl-piperazine-1-carbonyl)-propylcarbamoyl]-2-phenyl-pyrimidin-4-yl}-3-aza-bicyclo[3.1.0]hexane-6-carboxylic acid]: the IC50 turned out to be 60 nM.

Turning to `CCCCOC(=O)N1CCN(C(=O)[C@H](CC(C)C)NC(=O)c2cc(N3C[C@@H]4[C@H](C3)[C@@H]4C(=O)O)nc(-c3ccccc3)n2)CC1` [Example 39, (1α,5α,6β)-3-{6-[(S)-1-(4-Butoxycarbonyl-piperazine-1-carbonyl)-3-methyl-butylcarbamoyl]-2-phenyl-pyrimidin-4-yl}-3-aza-bicyclo[3.1.0]hexane-6-carboxylic acid], the concentration for half-maximal inhibition (IC50) worked out at 124 nM.

With `CCCCOC(=O)N1CCN(C(=O)[C@H](CP(=O)(OCOC(=O)OCC)OCOC(=O)OCC)NC(=O)c2cc(N3C[C@@H]4[C@H](C3)[C@H]4C(=O)OCC)nc(-c3ccccc3)n2)CC1` [Example 54, (1α,5α,6α)-3-{6-[(R)-1-(Bis-ethoxycarbonyloxymethoxy-phosphorylmethyl)-2-(4-butoxycarbonyl-piperazin-1-yl)-2-oxo-ethylcarbamoyl]-2-phenyl-pyrimidin-4-yl}-3-aza-bicyclo[3.1.0]hexane-6-carboxylic acid ethyl ester], the IC50 turned out to be 15 nM.

With `CCCCOC(=O)N1CCN(C(=O)[C@@H](NC(=O)c2cc(N3C[C@@H]4[C@H](C3)[C@@H]4C(=O)O)nc(-c3ccc(C)cc3)n2)C(C)C)CC1` [Example 29, (1α,5α,6β)-3-{6-[(S)-1-(4-Butoxycarbonyl-piperazine-1-carbonyl)-2-methyl-propylcarbamoyl]-2-p-tolyl-pyrimidin-4-yl}-3-aza-bicyclo[3.1.0]hexane-6-carboxylic acid], the IC50 is 18 nM. In the case of `CC(C)[C@H](NC(=O)c1cc(N2C[C@@H]3C(C(=O)O)[C@@H]3C2)nc(-c2ccccc2)n1)C(=O)N1CCN(C(=O)OCc2ccccc2)[C@H](C)C1` (stereo partly drawn) [Example 32, (1α,5α,6β)-3-{6-[(S)-1-((R)-4-Benzyloxycarbonyl-3-methyl-piperazine-1-carbonyl)-2-methyl-propylcarbamoyl]-2-phenyl-pyrimidin-4-yl}-3-aza-bicyclo[3.1.0]hexane-6-carboxylic acid], the half-inhibitory concentration (IC50) came out at 477 nM.

For `CCCCOC(=O)N1CCN(C(=O)[C@@H](NC(=O)c2cc(N3C[C@@H]4[C@H](C3)[C@H]4C(N)=O)nc(-c3ccccc3)n2)C(C)C)CC1` [Example 17, 4-((S)-2-{[6-((1α,5α,6α)-6-Carbamoyl-3-aza-bicyclo[3.1.0]hex-3-yl)-2-phenyl-pyrimidine-4-carbonyl]-amino}-3-methyl-butyryl)-piperazine-1-carboxylic acid butyl ester], the IC50 is 13 nM. As to `CCCCOC(=O)N1CCN(C(=O)[C@H](CC)NC(=O)c2cc(N3C[C@@H]4[C@H](C3)[C@@H]4C(=O)O)nc(-c3ccccc3)n2)CC1` [Example 36, (1α,5α,6β)-3-{6-[(S)-1-(4-Butoxycarbonyl-piperazine-1-carbonyl)-propylcarbamoyl]-2-phenyl-pyrimidin-4-yl}-3-aza-bicyclo[3.1.0]hexane-6-carboxylic acid], the concentration for half-maximal inhibition (IC50) stood at 96 nM. As for `CCCCOC(=O)N1CCN(C(=O)[C@@H](NC(=O)c2cc(N3C[C@@H]4[C@H](N)[C@@H]4C3)nc(-c3ccccc3)n2)C(C)C)CC1` [Example 23, 4-((S)-2-{[6-((1α,5α,6β)-6-Amino-3-aza-bicyclo[3.1.0]hex-3-yl)-2-phenyl-pyrimidine-4-carbonyl]-amino}-3-methyl-butyryl)-piperazine-1-carboxylic acid butyl ester], the figure is 266 nM; as for `CCCCOC(=O)N1CCN(C(=O)[C@H](C)NC(=O)c2cc(N3C[C@@H]4[C@H](C3)[C@H]4C(=O)O)nc(-c3ccccc3)n2)CC1` [Example 34, (1α,5α,6α)-3-{6-[(S)-2-(4-Butoxycarbonyl-piperazin-1-yl)-1-methyl-2-oxo-ethylcarbamoyl]-2-phenyl-pyrimidin-4-yl}-3-aza-bicyclo[3.1.0]hexane-6-carboxylic acid], 229 nM; as for `CCCCOC(=O)N1CCN(C(=O)[C@H](Cc2ccccc2)NC(=O)c2cc(N3CC4C(C3)C4C(=O)O)nc(-c3ccccc3)n2)CC1` (stereo partly drawn) [Example 46, (1α,5α,6α)-3-{6-[(S)-1-Benzyl-2-(4-butoxycarbonyl-piperazin-1-yl)-2-oxo-ethylcarbamoyl]-2-phenyl-pyrimidin-4-yl}-3-aza-bicyclo[3.1.0]hexane-6-carboxylic acid], 961 nM. Consider `CCCCOC(=O)N1CCN(C(=O)[C@@H](NC(=O)c2cc(N3C[C@@H]4[C@@H](CCC(=O)O)[C@@H]4C3)nc(-c3ccccc3)n2)C(C)C)CC1` [Example 27, 4-[(S)-2-({6-[(1α,5α,6α)-6-(2-Carboxy-ethyl)-3-aza-bicyclo[3.1.0]hex-3-yl]-2-phenyl-pyrimidine-4-carbonyl}-amino)-3-methyl-butyryl]-piperazine-1-carboxylic acid butyl ester], for which the half-maximal inhibitory concentration (IC50) was 151 nM. On to `CCCCOC(=O)N1CCN(C(=O)[C@H](CCc2nnn[nH]2)NC(=O)c2cc(N3C[C@@H]4[C@H](C3)[C@@H]4C(=O)O)nc(-c3ccccc3)n2)CC1` [Example 49, (1α,5α,6β)-3-{6-[(S)-1-(4-Butoxycarbonyl-piperazine-1-carbonyl)-3-(1H-tetrazol-5-yl)-propylcarbamoyl]-2-phenyl-pyrimidin-4-yl}-3-aza-bicyclo[3.1.0]hexane-6-carboxylic acid], for which the IC50 was less than 3.2 nM. As to `CCCCOC(=O)N1CCN(C(=O)[C@@H](NC(=O)c2cc(N3C[C@@H]4[C@@H](C#N)[C@@H]4C3)nc(-c3ccccc3)n2)C(C)C)CC1` [Example 18, 4-((S)-2-{[6-((1α,5α,6α)-6-Cyano-3-aza-bicyclo[3.1.0]hex-3-yl)-2-phenyl-pyrimidine-4-carbonyl]-amino}-3-methyl-butyryl)-piperazine-1-carboxylic acid butyl ester], the IC50 came out at 75 nM. In the case of `CCCCCCOC(=O)N1CCN(C(=O)[C@@H](NC(=O)c2cc(N3C[C@@H]4[C@H](C3)[C@@H]4C(=O)O)nc(-c3ccccc3)n2)C(C)C)CC1` [Example 16, (1α,5α,6β)-3-{6-[(S)-1-(4-Hexyloxycarbonyl-piperazine-1-carbonyl)-2-methyl-propylcarbamoyl]-2-phenyl-pyrimidin-4-yl}-3-aza-bicyclo[3.1.0]hexane-6-carboxylic acid], the IC50 was determined as 34 nM. As for `CCCCOC(=O)N1CCN(C(=O)[C@H](CCC(=O)O)NC(=O)c2cc(N3C[C@@H]4[C@@H](N)[C@@H]4C3)nc(-c3ccccc3)n2)CC1` [Example 7], the figure is 7.5 nM; as for `CCCCOC(=O)N1CCN(C(=O)[C@H](CP(=O)(OCOC(C)=O)OCOC(C)=O)NC(=O)c2cc(N3C[C@@H]4[C@H](C3)[C@H]4C(=O)OCC)nc(-c3ccccc3)n2)CC1` [Example 52, (1α,5α,6α)-3-{6-[(R)-1-(Bis-acetoxymethoxy-phosphorylmethyl)-2-(4-butoxycarbonyl-piperazin-1-yl)-2-oxo-ethylcarbamoyl]-2-phenyl-pyrimidin-4-yl}-3-aza-bicyclo[3.1.0]hexane-6-carboxylic acid ethyl ester], 4 nM. For the compound `CCCCOC(=O)N1CCN(C(=O)[C@H](CCC(=O)O)NC(=O)c2cc(N3C[C@@H]4[C@H](N)[C@@H]4C3)nc(-c3ccccc3)n2)CC1` [Example 8, 4-((S)-2-{[6-((1α,5α,6β)-6-Amino-3-aza-bicyclo[3.1.0]hex-3-yl)-2-phenyl-pyrimidine-4-carbonyl]-amino}-4-carboxy-butyryl)-piperazine-1-carboxylic acid butyl ester], the IC50 amounted to 7 nM.

Take `CCCCOC(=O)N1CCN(C(=O)[C@@H](NC(=O)c2cc(N3C[C@@H]4[C@H](C3)[C@@H]4C(N)=O)nc(-c3ccccc3)n2)C(C)C)CC1` [Example 20, 4-((S)-2-{[6-((1α,5α,6β)-6-Carbamoyl-3-aza-bicyclo[3.1.0]hex-3-yl)-2-phenyl-pyrimidine-4-carbonyl]-amino}-3-methyl-butyryl)-piperazine-1-carboxylic acid butyl ester]: the IC50 stood at 20 nM.
